According to patent publication US12428415B2, “Matriptase 2 inhibitors and uses thereof” (Disc Medicine, Inc., priority 2018, dated 2025):

What follows are compounds tested against T1, Human Recombinant Matriptase 2 (Homo sapiens, UniProt Q8IU80) (assay: Matriptase 2 fluorescence based inhibition assay, Method A (100 mM TRIS pH 9, 1 mg/mL BSA)). Details: 1 uM compound; Assay Used = A; read-out: Mar-2 % inhibition at 1 uM.
T1 construct: purchased Enzo Life Sciences (an in-house preparation was also used) ALX-201-752-1
T1 sequence (Q8IU80 1-811): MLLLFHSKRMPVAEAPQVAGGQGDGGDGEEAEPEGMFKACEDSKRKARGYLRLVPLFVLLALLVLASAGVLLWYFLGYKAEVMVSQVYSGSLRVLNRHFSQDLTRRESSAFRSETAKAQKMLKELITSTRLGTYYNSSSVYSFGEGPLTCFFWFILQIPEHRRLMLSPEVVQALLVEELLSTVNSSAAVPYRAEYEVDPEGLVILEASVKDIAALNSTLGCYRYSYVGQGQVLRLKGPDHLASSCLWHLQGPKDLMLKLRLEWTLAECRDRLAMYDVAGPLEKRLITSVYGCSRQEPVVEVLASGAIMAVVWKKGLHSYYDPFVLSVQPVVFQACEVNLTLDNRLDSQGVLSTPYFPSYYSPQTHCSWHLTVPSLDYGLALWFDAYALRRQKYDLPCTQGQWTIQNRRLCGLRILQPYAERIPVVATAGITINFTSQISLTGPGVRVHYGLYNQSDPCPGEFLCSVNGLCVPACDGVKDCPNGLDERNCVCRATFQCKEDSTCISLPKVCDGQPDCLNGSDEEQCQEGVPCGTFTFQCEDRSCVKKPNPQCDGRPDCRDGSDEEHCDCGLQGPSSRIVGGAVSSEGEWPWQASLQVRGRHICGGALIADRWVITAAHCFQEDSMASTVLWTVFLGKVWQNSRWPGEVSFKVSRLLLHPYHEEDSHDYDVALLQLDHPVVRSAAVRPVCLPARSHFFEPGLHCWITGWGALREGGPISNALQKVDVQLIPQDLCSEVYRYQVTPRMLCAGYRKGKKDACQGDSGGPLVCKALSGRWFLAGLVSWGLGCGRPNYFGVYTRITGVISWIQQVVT
Type: biochemical
Experimental: Test compounds were evaluated for their potential to inhibit Human Recombinant Matriptase 2 (in-house and commercial protein from Enzo Life Sciences—cat log -ALX-201-752-1) using fluorescence based assay. The concentration of Recombinant Matriptase 2 and the substrate used in the assay was: 7 nM (commercial) and 15 nM (Inhouse Matriptase 2) and 100 μM (Boc-Gln-Ala-Arg-7-amido-4-methyl coumarin hydrobromide—Cat log: B4153-Sigma) respectively. The assay buffer used was 100 mM TRIS pH 9, 1 mg/mL BSA. The assay was performed using 384 well black flat bottom plate from grenier (Cat log: 781076) at 25° C. The enzyme and compound was preincubated for 30 mins, plate was read 60 mins after substrate addition at wavelength Ex: 360/Em: 480 nm. The final assay volume was 20 μl. Stock solution of compounds were initially prepared in DMSO and appropriate dilutions were made for screening and IC50 determination (final DMSO conc in the assay was 1%). All the measurements were carried out using the Spectramax M5, Molecular devices. The compounds were screened at 1 and 10 μM concentration and IC50 was determined for the interested compounds.
To determine IC50 values, dose response curves were generated by plotting percentage inhibition as a function of inhibitor concentration and the data was fitted to sigmoidal non-linear regression equation (variable slope) using Graph Pad prism software V7.
For `N/C(=N\O)c1ccc2cc(C(=O)N[C@H]3CC[C@H](N)CC3)n(Cc3ccc4ccccc4c3)c2c1` [Compound I-399], the inhibition at 1 µM was 0 to 25%.

Same assay, conditions: 1 uM; Assay Used A; read-out: Mar-2 % inhibition at 1 uM
`N=C(N)c1ccc2cc(C(=O)Nc3cc(F)cc(Br)c3)n(Cc3ccc(C(N)=O)cc3)c2c1` [Compound I-126] was tested, and the inhibition at 1 µM was 0 to 25%. `N=C(N)c1ccc2cc(C(=O)Nc3cccc(-c4nccs4)c3)n(Cc3ccc(C(N)=O)cc3)c2c1` [Compound I-144] showed an inhibition at 1 µM of 0 to 25%. `N=C(N)c1ccc2cc(C(=O)Nc3ccc(C(F)(F)F)cc3)n(CCS(=O)(=O)c3ccccc3)c2c1` [Compound I-43] showed an inhibition at 1 µM of 0 to 25%. `N=C(N)c1ccc2cc(C(=O)Nc3cccc(F)c3)n(Cc3ccc(C(N)=O)cc3)c2c1` [Compound I-62] showed an inhibition at 1 µM of 0 to 25%. Compound `N=C(N)c1ccc2cc(C(=O)Nc3ccc(CN4CCCC4)cc3)n(Cc3ccc(C(N)=O)cc3)c2c1` [Compound I-114] has an inhibition at 1 µM of 25 to 50%. `N=C(N)c1ccc2cc(C(=O)Nc3cccc(N4CCCC4=O)c3)n(Cc3ccc(C(N)=O)cc3)c2c1` [Compound I-156] was tested, and the inhibition at 1 µM was 0 to 25%. `CO[C@H]1CCN(c2cccc(NC(=O)c3cc4ccc(C(=N)N)cc4n3Cc3ccc(C(N)=O)cc3)c2)C1` [Compound I-123] gave an inhibition at 1 µM of 0 to 25%. For `N=C(N)c1ccc2cc(C(=O)Nc3cccc(-n4ccc(C(F)(F)F)n4)c3)n(Cc3ccc(C(N)=O)cc3)c2c1` [Compound I-166], the inhibition at 1 µM was 0 to 25%. In the case of `N=C(N)c1ccc2cc(C(=O)Nc3cccc(C(F)(F)F)c3)n(CCS(=O)(=O)c3ccccc3)c2c1` [Compound I-40, 6-Carbamimidoyl-1-(2-(phenylsulfonyl)ethyl)-N-(3-(trifluoromethyl)phenyl)-1H-indole-2-carboxamide], the inhibition at 1 µM was 0 to 25%. `N=C(N)c1ccc2cc(C(=O)N[C@H]3CC[C@H](N)CC3)n(Cc3ccc(C(N)=O)cc3)c2c1` [Compound I-184] gave an inhibition at 1 µM of 25 to 50%. For `N=C(N)c1ccc2cc(C(=O)N[C@@H]3CC=CCC3)n(CCS(=O)(=O)c3ccccc3)c2c1` [Compound I-47], the inhibition at 1 µM was 0 to 25%. For `C[C@H]1CCCN1c1cccc(NC(=O)c2cc3ccc(C(=N)N)cc3n2Cc2ccc(C(N)=O)cc2)c1` [Compound I-124], the inhibition at 1 µM was 0 to 25%. With `C[C@@H](NC(=O)c1cc2ccc(C(=N)N)cc2n1Cc1ccc(C(N)=O)cc1)C1CCCCC1` [Compound I-194] the inhibition at 1 µM was 0 to 25%. Compound `CC(C)c1ccc(Cn2c(C(=O)N[C@H]3CC=CCC3)cc3ccc(C(=N)N)cc32)cc1` [Compound I-14] has an inhibition at 1 µM of 0 to 25%. `N=C(N)c1ccc2cc(C(=O)Nc3ccc4c(c3)CCC4)n(Cc3ccc(C(N)=O)cc3)c2c1` [Compound I-64] showed an inhibition at 1 µM of 0 to 25%. Compound `N=C(N)c1ccc2cc(C(=O)N[C@H]3CC[C@H](NC(=O)c4ccccn4)CC3)n(Cc3ccc(C(F)(F)F)cc3)c2c1` [Compound I-9, 6-carbamimidoyl-N-((1r,4r)-4-(picolinamido)cyclohexyl)-1-(4-(trifluoromethyl)benzyl)-1H-indole-2-carboxamide] has an inhibition at 1 µM of 25 to 50%. `C#Cc1cccc(NC(=O)c2cc3ccc(C(=N)N)cc3n2Cc2ccc(C(N)=O)cc2)c1` [Compound I-138] gave an inhibition at 1 µM of 0 to 25%. Compound `N=C(N)c1ccc2cc(C(=O)Nc3cccc(-n4cccn4)c3)n(Cc3ccc(C(N)=O)cc3)c2c1` [Compound I-132] has an inhibition at 1 µM of 25 to 50%. In the case of `N=C(N)c1ccc2cc(C(=O)NCC3CCCCC3)n(Cc3ccc(C(N)=O)cc3)c2c1` [Compound I-191], the inhibition at 1 µM was 0 to 25%. Work on `N=C(N)c1ccc2cc(C(=O)Nc3ccc4ncsc4c3)n(Cc3ccc(C(N)=O)cc3)c2c1` [Compound I-88] yielded an inhibition at 1 µM of 0 to 25%. In the case of `C#CCOc1cccc(NC(=O)c2cc3ccc(C(=N)N)cc3n2Cc2ccc(C(N)=O)cc2)c1` [Compound I-146], the inhibition at 1 µM was 25 to 50%. With `N=C(N)c1ccc2cc(C(=O)NCc3cccc(N4CCCC4)c3)n(Cc3ccc(C(N)=O)cc3)c2c1` [Compound I-100] the inhibition at 1 µM was 25 to 50%. `CCCCOC(=O)NC(=N)c1ccc2cc(C(=O)Nc3cccc(N4CCCC4)c3)n(Cc3ccc(C(N)=O)cc3)c2c1` [Compound I-160] gave an inhibition at 1 µM of 0 to 25%.

Same assay, conditions: at 1 uM; Assay Used = A; read-out: Mar-2 % inhibition at 1 uM
In the case of `N=C(N)c1ccc2cc(C(=O)N3CCC(F)C3)n(Cc3cccc(C(N)=O)c3)c2c1` (stereo not shown) [Compound I-323, 3-((6-Carbamimidoyl-2-(3-fluoropyrrolidine-1-carbonyl)-1H-indol-1-yl)methyl)benzamide], the inhibition at 1 µM was 0 to 25%. `N=C(N)c1ccc2cc(C(=O)N3CCC(CF)CC3)n(Cc3ccc(OC(F)(F)F)cc3)c2c1` [Compound I-291] showed an inhibition at 1 µM of 0 to 25%. In the case of `CC(C)CCn1c(C(=O)N2CCC(CCN)CC2)c(N)c2ccc(C(=N)N)cc21` [Compound I-345, 3-Amino-2-(4-(2-aminoethyl)piperidine-1-carbonyl)-1-isopentyl-1H-indole-6-carboximidamide], the inhibition at 1 µM was 25 to 50%. Work on `N=C(N)c1ccc2cc(C(=O)N[C@@H]3c4ccccc4C[C@H]3O)n(Cc3ccc(C(N)=O)cc3)c2c1` [Compound I-203] yielded an inhibition at 1 µM of 0 to 25%. With `N=C(N)c1ccc2cc(C(=O)NCC3CCCCC3)n(Cc3ccc(B(O)O)cc3)c2c1` [Compound I-231] the inhibition at 1 µM was 0 to 25%. Work on `N=C(N)c1ccc2cc(C(=O)N3CCC(CCN)CC3)n(Cc3ccc(Oc4ccc(F)cc4)nc3)c2c1` [Compound I-317] yielded an inhibition at 1 µM of 25 to 50%. For `CNC(=O)c1ccc(Cn2c(C(=O)N3CCC(F)CC3)cc3ccc(C(=N)N)cc32)cc1` [Compound I-388], the inhibition at 1 µM was 0 to 25%. In the case of `CC(C)c1ccc(Cn2c(C(=O)N3CC[C@H](F)C3)cc3ccc(C(=N)N)cc32)cc1` [Compound I-293], the inhibition at 1 µM was 0 to 25%. In the case of `N=C(N)c1ccc2cc(C(=O)N3CCC(CCN)CC3)n(S(=O)(=O)Cc3ccccc3)c2c1` [Compound I-336], the inhibition at 1 µM was 0 to 25%. Compound `N=C(N)c1ccc2cc(C(=O)N3CC[C@@H](N4CCOCC4)C3)n(Cc3ccc(C(N)=O)cc3)c2c1` [Compound I-333] has an inhibition at 1 µM of 0 to 25%. Work on `N=C(N)c1ccc2cc(C(=O)N3CC[C@H](F)C3)n(Cc3ccc(C(F)(F)F)cc3)c2c1` [Compound I-279] yielded an inhibition at 1 µM of 0 to 25%. With `N=C(N)c1ccc2cc(C(=O)N3CCC(F)(F)CC3)n(Cc3ccc(C(N)=O)cc3)c2c1` [Compound I-327] the inhibition at 1 µM was 0 to 25%. Compound `N=C(N)c1ccc2cc(C(=O)NC3CCC(F)(F)CC3)n(Cc3ccc(NC(=O)CCN)cc3)c2c1` [I- s263] has an inhibition at 1 µM of 0 to 25%. `N=C(N)c1ccc2cc(C(=O)N3CCC(F)(F)C3)n(Cc3ccc(C(=O)NC4CC4)cc3)c2c1` [Compound I-387] gave an inhibition at 1 µM of 0 to 25%. Work on `N=C(N)c1ccc2c(Br)c(C(=O)N[C@H]3CC[C@H](N)CC3)n(Cc3ccc(Oc4ccccc4)cc3)c2c1` [Compound I-250] yielded an inhibition at 1 µM of 25 to 50%. Compound `N=C(N)c1ccc2cc(C(=O)N3CCC(CCN)CC3)n(Cc3cccc(Oc4ccccc4)c3)c2c1` [Compound I-321] has an inhibition at 1 µM of 25 to 50%. Work on `N=C(N)c1ccc2cc(C(=O)N3CC[C@H](F)C3)n(Cc3cccc(NC(=O)CCN)c3)c2c1` [Compound I-368] yielded an inhibition at 1 µM of 0 to 25%. For `N=C(N)c1ccc2cc(C(=O)N3CC[C@H](F)C3)n(Cc3ccc(C(N)=O)cc3)c2c1` [Compound I-330], the inhibition at 1 µM was 0 to 25%. In the case of `CC(C)c1ccc(Cn2c(C(=O)N3CCC(F)CC3)cc3ccc(C(=N)N)cc32)cc1` [Compound I-295], the inhibition at 1 µM was 0 to 25%. For `N=C(N)c1ccc2cc(C(=O)N3CCC(F)CC3)n(Cc3ccc(C(=O)NC4CC4)cc3)c2c1` [Compound I-391], the inhibition at 1 µM was 0 to 25%. Work on `Cc1csc(NC(=O)c2cc3ccc(C(=N)N)cc3n2Cc2ccc(C(N)=O)cc2)n1` [Compound I-266] yielded an inhibition at 1 µM of 0 to 25%. Compound `COc1ccc(CCn2c(C(=O)N3CCC(CCN)CC3)cc3ccc(C(=N)N)cc32)cc1` [Compound I-302] has an inhibition at 1 µM of 25 to 50%.
